Results as given in the supplement of paper PMC10307832.

Tests used:
[1] = compound: CC(C)=CC[C@@H](O)C1=CC(=O)c2c(O)ccc(O)c2C1=O [Shikonin] + COc1cc2c(Oc3ccc(NC(=O)C4(C(=O)Nc5ccc(F)cc5)CC4)cc3F)ccnc2cc1OCCCN1CCOCC1 [Foretinib] (partner 0.25 µM); assay: relative viability (nuclei count vs DMSO), 5 days (fraction); higher = more cells survive
How it was run: (§1)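 Lung cancer cell lines in 1536-well plates got either a single drug or a fixed anchor-drug dose together with five library-drug doses (not always all listed) in √10 steps, by pin tool, on the day after seeding. Nuclei were counted after 5 days, and relative viability is the treated-to-vehicle ratio of nuclei counts. Values are medians of duplicate plates.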

[2] = compound: CC(C)N(CCCNC(=O)Nc1ccc(C(C)(C)C)cc1)C[C@H]1O[C@@H](n2ccc3c(N)ncnc32)[C@H](O)[C@@H]1O + Cc1cc(Nc2cc(N3CCN(C)CC3)nc(Sc3ccc(NC(=O)C4CC4)cc3)n2)n[nH]1 [Tozasertib] (partner 0.1 µM); assay: as above
How it was run: as §1

| Cell Line | relative viability ([1]; first compound 0.01 µM) | relative viability ([1]; first compound 0.1 µM) | relative viability ([1]; first compound 0.3162 µM) | relative viability ([1]; first compound 1 µM) | relative viability ([2]; first compound 0.08 µM) | relative viability ([2]; first compound 0.253 µM) | relative viability ([2]; first compound 0.8 µM) | relative viability ([2]; first compound 2.53 µM) | relative viability ([2]; first compound 8 µM) |
| --- | --- | --- | --- | --- | --- | --- | --- | --- | --- |
| NCI-H2085 | 0.851 | 1.06 | 0.996 | 0.753 | 0.746 | 0.78 | 0.797 | 0.854 | 0.716 |
| COR-L 105 | 1.44 | 1.31 | 1.34 | 1.33 | 0.357 | 0.357 | 0.331 | 0.336 | 0.316 |
| SW 1573 | 0.929 | 0.894 | 1.13 | 0.765 | 0.201 | 0.151 | 0.201 | 0.193 | 0.163 |
| LXF-289 | 0.987 | 1.02 | 0.998 | 0.972 | 0.167 | 0.199 | 0.131 | 0.176 | 0.174 |
| RERF-LC-KJ | 0.904 | 0.961 | 0.903 | 0.908 | 0.505 | 0.495 | 0.546 | 0.509 | 0.474 |
| NCI-H727 | 0.864 | 0.837 | 0.905 | 0.883 | 0.667 | 0.656 | 0.697 | 0.621 | 0.642 |
| NCI-H1666 | 0.932 | 1.02 | 1.01 | 0.961 | 0.512 | 0.563 | 0.632 | 0.563 | 0.695 |
| NCI-H2087 | 1.04 | 1.07 | 1.19 | 1.1 | 0.243 | 0.252 | 0.243 | 0.259 | 0.207 |
| NCI-H1734 | 0.762 | 0.681 | 0.869 | 0.915 | 0.265 | 0.249 | 0.277 | 0.246 | 0.258 |
| NCI-H2228 | 0.824 | 0.619 | 0.895 | 0.806 | 0.261 | 0.314 | 0.264 | 0.277 | 0.23 |
| EMC-BAC-2 | 0.993 | 1.05 | 1.16 | 0.972 | 0.287 | 0.314 | 0.285 | 0.275 | 0.275 |
| NCI-H2009 | 1.24 | 1.37 | 1.31 | 1.06 | 0.765 | 0.727 | 0.798 | 0.695 | 0.713 |
| NCI-H647 | 1.29 | 1.46 | 1.51 | 1.31 | 0.261 | 0.318 | – | 0.416 | 0.267 |
| NCI-H661 | 0.987 | 1.08 | 1.09 | 0.976 | 0.365 | 0.345 | 0.362 | 0.35 | 0.37 |
| ChaGo-K-1 | 0.97 | 1.06 | 1.05 | 0.943 | 0.242 | 0.245 | 0.222 | 0.209 | 0.23 |
| NCI-H2342 | 1 | 1.12 | 1.03 | 1.03 | 0.57 | 0.559 | 0.415 | 0.472 | 0.56 |
| NCI-H1650 | 1.18 | 1.07 | 0.985 | 1.32 | 0.483 | 0.358 | – | 0.398 | 0.439 |
| NCI-H2023 | 0.921 | 0.863 | 0.887 | 0.931 | 0.437 | 0.38 | 0.345 | 0.375 | 0.338 |
| LOU-NH91 | 0.955 | 0.934 | 1.04 | 0.9 | 0.635 | 0.662 | 0.314 | 0.682 | 0.607 |
| NCI-H3122 | 0.959 | 0.997 | 0.947 | 1.01 | 0.477 | 0.489 | 0.382 | 0.383 | 0.353 |
| SW 900 | 1.04 | 0.987 | 0.915 | 0.801 | 0.683 | 0.696 | – | 0.543 | 0.438 |
